Test results taken from patent US20230286946A1, “DIFLUOROMETHYL-PYRIDIN-2-YL TRIAZOLES” (Boehringer Ingelheim International GmbH, priority 2020, published 2023).

Columns and labels:
[1] = target: T1, human GABAA α5β3γ2s receptor (Homo sapiens, UniProt P18507+P31644); test: Assay A: in vitro inhibition of 3H-flumazenil binding, HEK cells expressing the human GABAA α5β3γ2s receptor; conditions: read-out: Assay A: GABAA α 5 β 3 γ 2s Ki
T1 sequence (P18507 1-475): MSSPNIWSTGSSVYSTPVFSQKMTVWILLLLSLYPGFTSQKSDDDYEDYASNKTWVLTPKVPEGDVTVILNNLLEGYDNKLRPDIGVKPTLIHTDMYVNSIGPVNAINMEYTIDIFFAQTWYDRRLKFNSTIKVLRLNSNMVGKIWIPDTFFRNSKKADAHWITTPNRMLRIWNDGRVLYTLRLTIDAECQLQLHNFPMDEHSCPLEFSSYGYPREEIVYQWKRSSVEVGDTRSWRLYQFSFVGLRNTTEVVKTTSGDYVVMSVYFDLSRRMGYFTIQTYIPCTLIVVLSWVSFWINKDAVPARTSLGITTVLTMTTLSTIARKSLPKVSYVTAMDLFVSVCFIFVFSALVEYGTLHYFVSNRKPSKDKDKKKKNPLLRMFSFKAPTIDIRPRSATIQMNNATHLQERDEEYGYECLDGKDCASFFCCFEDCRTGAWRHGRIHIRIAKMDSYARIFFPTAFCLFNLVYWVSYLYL
T1 sequence (P31644 1-462): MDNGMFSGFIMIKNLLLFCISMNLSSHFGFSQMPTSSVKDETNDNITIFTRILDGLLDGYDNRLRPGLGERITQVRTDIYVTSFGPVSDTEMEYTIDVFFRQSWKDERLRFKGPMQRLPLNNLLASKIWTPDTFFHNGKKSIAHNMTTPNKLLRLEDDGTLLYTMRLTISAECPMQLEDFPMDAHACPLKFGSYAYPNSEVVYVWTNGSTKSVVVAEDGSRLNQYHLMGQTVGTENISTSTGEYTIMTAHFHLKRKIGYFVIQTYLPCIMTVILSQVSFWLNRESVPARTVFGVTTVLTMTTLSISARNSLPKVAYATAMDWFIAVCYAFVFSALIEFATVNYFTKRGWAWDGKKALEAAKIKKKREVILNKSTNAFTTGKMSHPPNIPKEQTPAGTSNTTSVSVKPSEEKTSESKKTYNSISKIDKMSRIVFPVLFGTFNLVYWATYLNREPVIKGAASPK
Experimental: Cell Cultures and Membrane Preparation
HEK-293 cell lines with stable expression of recombinant human GABAA α5ß3 γ2s receptors (plasmid H46/E9/B10) are seeded in T175 polystyrene flasks or roller bottles (1700 cm^2, Fisher Scientific CCI-431191), and cultured (37° C., 5% CO2) in Dulbecco's Modified Eagle Medium (DMEM) with GlutaMAX™ supplemented with 10% fetal bovine serum and one or both of the following antibiotics: hygromycin B ([…]; γ2 subunit) or G418 (0.5 mg/ml; […]).
When the cultures reach confluency, the DMEM is removed and the cells are washed (10 ml for T175 flasks; 50 ml for roller bottles) once in Dulbecco's Phosphate Buffered Saline (DPBS). Following addition of DPBS to the cultures (10 ml for T175 flasks; 100 ml for roller bottles) for approximately 5 min cells are easily detached from the surface by shaking or tapping the flask gently. The cell suspension is transferred to Falcon tubes and centrifuged at 23,500×g for 10 min at 2° C. The pellet is washed once in 15 ml Tris-citrate buffer (50 mM, pH 7.1) using an Ultra-Turrax homogenizer and centrifuged at 2° C. for 10 min at 27,000×g. The washed pellet is re-suspended in 15 ml Tris-citrate buffer and frozen at −80° C. until the day of the binding experiment.
On the day of the experiment the cell membrane preparation is thawed and centrifuged at 2° C. for 10 min at 27,000×g. The pellet is re-suspended, using an Ultra-Turrax homogenizer in Tris-citrate buffer, to 15-50 µg protein per assay and then used for binding assays.
Non-specific binding is determined using clonazepam ([…]).
All dilutions of test compounds and incubation of assay are performed in glass vials/96-vial plates. […] Compounds are dissolved in 100% DMSO (10 mM stock), diluted in 48% ethanol-water, and tested in triplicate in serial 1:3 or 1:10 dilutions. When screening large numbers of compounds only one concentration of each compound is tested in single wells. Reference compounds are not included routinely, but for each experiment performed total and nonspecific binding is compared to data obtained during validation of the assay.
Binding is either terminated by rapid filtration onto
1) Whatman GF/C glass fibre filters using a Brandel Cell harvester, followed by 5 washes with 1 ml ice-cold buffer or onto 2) UniFilter GF/C glass fibre filter plates using a Tomtec cell harvester, followed by washing with approximately 5 ml ice-cold buffer.
The amount of radioactivity on the filters is determined by conventional liquid scintillation counting using a
1) Tri-Garb™ counter (PerkinElmer Life and Analytical Sciences) for separate large filters or
2) Topcount™ counter (PerkinElmer Life and Analytical Sciences) for 96-well filter plates.
Specific binding is total binding minus non-specific binding.
The IC50 value for a test compound is determined based on the equation: […]
where B is the binding in percentage of total specific binding; C is the concentration of test compound; and n is the Hill coefficient. For screening purposes n is set to 1. The IC50 value is calculated from the concentration response curves by the non-linear regression method using the curve-fitting program GraphPad Prism.
The Ki value for a test compound can be calculated from the IC50 value using the equation by Cheng and Prusoff: […]

[2] = Metabolic stability in human liver microsomes (Human MST); type: in vitro ADME; conditions: pH 7.6, pooled human liver microsomes, 37° C., read-out: Human MST t½
Experimental: Assessment of Metabolic Stability in Human Liver Microsomes (Human MST) The metabolic stability of the compounds according to the invention may be investigated as follows: The metabolic degradation of the test compound is assayed at 37° C. with pooled human liver microsomes. The final incubation volume of 100 μL per time point contains TRIS buffer pH 7.6 at room temperature (0.1 M), MgCl2 (5 mM), microsomal protein (1 mg/mL) and the test compound at a final concentration of 1 μM. Following a short pre-incubation period at 37° C., the reactions are initiated by addition of beta-nicotinamide adenine dinucleotide phosphate, reduced form (NADPH, 1 mM), and terminated by transferring an aliquot into solvent after different time points. After centrifugation (10000 g, 5 min), an aliquot of the supernatant is assayed by LCMS/MS for the amount of parent compound. The half-life (t1/2) is determined by the slope of the semi-logarithmic plot of the concentration-time profile.

Ki [1]: 13 nM
half-life at 1 μM [2]: 1.68 h
SMILES: Cc1nnn(-c2ccc(C(F)F)cn2)c1COc1ccc(-c2cnn(C)c2C)nn1 [Example 9]
